Laboratory results published in patent US7884114B2, “Compounds” (Glaxo Group Limited, priority 2007, dated 2011).
Counter-ions that a name gives are not always drawn. Like-named read-outs stand apart in the source and are kept apart here.

Legend:
[1] = test system: histamine-induced nasal congestion; test: Intranasal challenge method: whole body plethysmography, histamine-induced nasal congestion; format: in vivo, Dunkin-Hartley guinea pigs; settings: for inhibition of response to histamine challenge: dosed intranasally at 1 mg/ml
Method: Intranasal Challenge Method: Whole Body Plethysmography
Female Dunkin-Hartley guinea pigs 150-250 g are sensitised twice daily for 5 days (week 1) with ovalbumin (OVA) and aluminium hydroxide (Al(OH)3 or Alum) in physiological saline, 25 μl/nostril. Solution is made up at 20 μg/ml OVA, 180 mg/ml Alum. During weeks 2 and 3 animals receive 25 μl/nostril of OVA (5 mg/ml) once daily. During Week 4 guinea pigs will be entered into study but are continually sensitized as per weeks 2 and 3 until the day before dosing with compound or vehicle.
(b) Compound Vehicle Pretreatment
Pretreatment with test compound is performed at various times prior to histamine challenge. Efficacy dose-response curves are determined 1 hr and/or 3 hr after dosing whereas duration of action may be studied up to 7 days post dose (for example, at 24 hours). Test compounds are formulated as solutions in 0.9% sterile saline or suspensions in 0.9% sterile saline/tween80.
Guinea pigs were anaesthetised with isoflurane (5%, 2-31/min O2), placed in a supine position, and 25 μl of test compound or vehicle dosed into each nostril using a Gilson pipette. After dosing, animals remain supine for at least 30 seconds (e.g. 60 seconds) during recovery from anaesthesia.
(c) Histamine Challenge Protocol
G. & Gelfand, E. W. (1997), Noninvasive measurement of airway responsiveness in allergic mice using barometric plethysmography., Am. J. Respir. Crit. Care Med., 156, 766-775.
After the stipulated pre-dose time has been reached, guinea pigs are re-anaesthetised with isoflurane and dosed with either 10 mM or 15 mM histamine or phosphate-buffered saline (PBS), (25 μl per nostril). […] These recordings are summed to give a cumulative AUC over 40 mins post histamine challenge for each animal. Data are analysed using ANOVA with post-hoc Fishers LSD test (general linear models, Statistica®) and finally Hochberg adjustment. Inhibition of histamine-induced congestion is determined by statistically significant differences between the mean responses of compound pre-treated groups compared to the vehicle pre-treated, histamine-challenged group.

human H1 receptor [2] = target: T1, human H1 receptor (Homo sapiens, UniProt P35367); test: Histamine H1 functional antagonist assay (FLIPR): antagonist pA2; format: cell-based
T1 construct: expressed in transfected cells
Method: (§1) The human H1 receptor is cloned using known procedures described in the literature [Biochem. Biophys. Res. Commun., 201(2):894 (1994)]. Chinese hamster ovary (CHO) cells stably expressing the human H1 receptor are generated according to known procedures described in the literature [Br. J. Pharmacol., 117(6):1071 (1996)].
Histamine H1 Functional Antagonist Assay: Determination of Antagonist pA2 and Duration
The histamine H1 receptor expressing CHO cells are seeded into non-coated black-walled clear bottom 96-well tissue culture plates as described above.
Following overnight culture, growth medium is removed from each well, washed with 200 μl PBS and is replaced with 50 μl loading dye (250 μM Brilliant Black, 1 μM Fluo-4 diluted in Tyrodes buffer+probenecid (145 mM NaCl, 2.5 mM KCl, 10 mM HEPES, 10 mM D-glucose, 1.2 mM MgCl2, 1.5 mM CaCl2, 2.5 mM probenecid, pH adjusted to 7.40 with NaOH 1.0 M)). Cells are incubated for 45 min at 37° C. The loading buffer is removed and the cells are washed as above, and 90 μl of Tyrodes buffer+probenecid is added to each well. 10 μl of test compound, diluted to the required concentration in Tyrodes buffer+probenecid (or 10 μl Tyrodes buffer+probenecid as a control) is added to each well and the plate is incubated for 30 min at 37° C., 5% CO2.
The plates are then placed into a FLIPR™ (Molecular Devices, UK) to monitor cell fluorescence (λex=488 nm, λEM=540 nm) in the manner described in Sullivan et al., (In: Lambert D G (ed.), Calcium Signaling Protocols, New Jersey: Humana Press, 1999, 125-136) before and after the addition of 50 μl histamine over a concentration range of 1 mM-0.1 nM. […] The antagonist pA2 is calculated using the following standard equation: pA2=log(DR−1)−log [ B] where DR=dose ratio, defined as EC50antagonist-treated/EC50control and [B]=concentration of antagonist.

human H1 receptor [3] = target: T1, human H1 receptor; test: Histamine H1 functional antagonist assay (FLIPR): functional pKi; format: cell-based; settings: CHO cells expressing human H1 receptor, histamine EC80, read-out: average pKi (pKb) at H1 (converted)
Method: as §1
10 μl of test compound, diluted to the required concentration in Tyrodes buffer+probenecid (or 10 μl Tyrodes buffer+probenecid as a control) is added to each well and the plate is incubated for 30 min at 37° C., 5% CO2.

human H1 receptor [4] = target: T1, human H1 receptor; test: Histamine H1 functional antagonist assay: antagonist duration after washout; format: cell-based; settings: at one or more time points
Method: The human H1 receptor is cloned using known procedures described in the literature [Biochem. Biophys. Res. Commun., 201(2):894 (1994)]. Chinese hamster ovary (CHO) cells stably expressing the human H1 receptor are generated according to known procedures described in the literature [Br. J. Pharmacol., 117(6):1071 (1996)]. […] Following the 30 min antagonist incubation period, the cells are washed two or three times with 200 μl of PBS and then 100 μl Tyrodes buffer is added to each well to initiate antagonist dissociation. […] After this period, the cells are challenged with histamine in the FLIPR™ as described above. […] The decrease in receptor occupancy over time approximates to a straight line and is analysed by linear regression. The slope of this straight line fit is used as an index of the dissociation rate of the antagonist. The dose ratios for antagonist treated cells and for antagonist treated and washed cells at each time point are used to calculate a relative dose ratio (rel DR) which is also used as an index of antagonist duration. Antagonists with long duration of action produce rel DR values close to 1, and antagonists with short duration of action produce rel DR values that approaches the dose ratio value obtained for antagonist treatment alone.

[5] = CHO cells expressing H1 receptor, FLIPR, histamine concentration response curves, read-out: average pA2 (converted)

T1 sequence (P35367 whole entry): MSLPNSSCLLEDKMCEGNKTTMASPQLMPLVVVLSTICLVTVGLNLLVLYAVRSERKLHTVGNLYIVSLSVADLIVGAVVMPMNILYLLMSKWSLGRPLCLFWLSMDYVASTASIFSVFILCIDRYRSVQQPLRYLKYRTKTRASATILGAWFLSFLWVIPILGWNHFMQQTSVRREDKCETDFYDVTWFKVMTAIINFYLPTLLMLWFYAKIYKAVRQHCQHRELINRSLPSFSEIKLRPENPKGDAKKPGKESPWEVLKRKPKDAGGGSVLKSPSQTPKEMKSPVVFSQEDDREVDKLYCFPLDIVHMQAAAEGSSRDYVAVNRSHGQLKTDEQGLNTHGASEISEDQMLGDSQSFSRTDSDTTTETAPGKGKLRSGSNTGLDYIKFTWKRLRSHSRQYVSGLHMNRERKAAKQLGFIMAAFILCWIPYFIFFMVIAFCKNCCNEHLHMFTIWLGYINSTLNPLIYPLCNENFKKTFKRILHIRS

SMILES | Kb (human H1 receptor [2]; [5]) [nM] | other results
CCCCc1cc(OC2CCN(CCCCNS(=O)(=O)CC)CC2)c2ncccc2c1.Cl.Cl [Example 23B, N-(4-{4-[(6-Butyl-8-quinolinyl)oxy]-1-piperidinyl}butyl)ethanesulfonamide, dihydrochloride salt] |  | inhibition of response to histamine challenge ([1]; 3 hr before histamine challenge): significantly (p<0.05) inhibited the response; inhibition of response to histamine challenge ([1]; 24 hr before histamine challenge): significantly (p<0.05) inhibited the response
CCCCc1cc(OC2CCN(CCCS(=O)(=O)C3CCCC3)CC2)c2ncccc2c1 [Example 8, 6-Butyl-8-({1-[3-(cyclopentylsulfonyl)propyl]-4-piperidinyl}oxy)quinoline, formate salt (1:1)] |  | Kb (human H1 receptor [2]): < 100 nM
CCCCc1cc(OC2CCN(CCCS(C)(=O)=O)CC2)c2ncccc2c1 [Example 3, 6-Butyl-8-({1-[3-(methylsulfonyl)propyl]-4-piperidinyl}oxy)quinoline, dihydrochloride salt] | < 10 | 
CCCCc1cc(OC2CCN(CCNS(=O)(=O)CC(C)C)CC2)c2ncccc2c1 [Example 15, N-(2-{4-[(6-Butyl-8-quinolinyl)oxy]-1-piperidinyl}ethyl)-2-methyl-1-propanesulfonamide, dihydrochloride salt] | < 10 | Ki (human H1 receptor [3]): < 100 nM
CCCCc1cc(OC2CCN(CCNS(=O)(=O)c3ccccc3)CC2)c2ncccc2c1 [Example 16, N-(2-{4-[(6-Butyl-8-quinolinyl)oxy]-1-piperidinyl}ethyl)benzenesulfonamide, dihydrochloride salt] | < 10 | Ki (human H1 receptor [3]): < 100 nM
CCCCc1cc(OC2CCN(CCCNS(=O)(=O)CCC)CC2)c2ncccc2c1 [Example 18, N-(3-{4-[(6-Butyl-8-quinolinyl)oxy]-1-piperidinyl}propyl)-1-propanesulfonamide, dihydrochloride salt] | < 1 | 
CCCCCc1cc(OC2CCN(CCCS(=O)(=O)CC)CC2)c2ncccc2c1 [Example 11, 8-({1-[3-(Ethylsulfonyl)propyl]-4-piperidinyl}oxy)-6-pentylquinoline, dihydrochloride salt] | < 1 | 
CCCCc1cc(OC2CCN(CCCCNS(=O)(=O)CC3CCCCC3)CC2)c2ncccc2c1 [Example 28, N-(4-{4-[(6-Butyl-8-quinolinyl)oxy]-1-piperidinyl}butyl)-1-cyclohexyl methane sulfonamide, dihydrochloride salt] | < 10 | 
CCCCc1cc(OC2CCN(CCCNC(=O)NCCC)CC2)c2ncccc2c1 [Example 36, N-(3-{4-[(6-Butyl-8-quinolinyl)oxy]-1-piperidinyl}propyl)-N′-propylurea, dihydrochloride salt] |  | Kb (human H1 receptor [2]): < 1 nM
CCCCc1cc(O[C@@H]2CCN(CCCS(=O)(=O)C(C)(C)C)C2)c2ncccc2c1 [Example 12, 6-Butyl-8-[((3R)-1-{3-[(1,1-dimethylethyl)sulfonyl]propyl}-3-pyrrolidinyl)oxy]quinoline, dihydrochloride salt] | < 100 | 
CCCCc1cc(OC2CCN(CCCCCNS(=O)(=O)CC)CC2)c2ncccc2c1 [Example 32, N-(5-{4-[(6-Butyl-8-quinolinyl)oxy]-1-piperidinyl}pentyl)ethanesulfonamide, dihydrochloride salt] | < 1 | 
CCCCc1cc(OC2CCN(C3CCS(=O)(=O)C3)CC2)c2ncccc2c1 (stereo not drawn) [Example 13, 6-Butyl-8-{[1-(1,1-dioxidotetrahydro-3-thienyl)-4-piperidinyl]oxy}quinoline] | < 100 | Ki (human H1 receptor [3]): < 100 nM
CCCCc1cc(OC2CCN(CCCNS(=O)(=O)C(C)C)CC2)c2ncccc2c1 [Example 19, N-(3-{4-[(6-Butyl-8-quinolinyl)oxy]-1-piperidinyl}propyl)-2-propanesulfonamide, dihydrochloride salt] | < 1 | 
CN1CCCC(n2nc(Cc3ccc(Cl)cc3)c3ccccc3c2=O)CC1 (stereo not drawn) [azelastine, reference compound] |  | duration of action in intranasal challenge model ([1]; administered at the same concentration (1 mg/ml intranasally)): failed to show a similar duration of action
CCCCc1cc(OC2CCN(CCCCNS(=O)(=O)CC(C)C)CC2)c2ncccc2c1 [Example 26, N-(4-{4-[(6-Butyl-8-quinolinyl)oxy]-1-piperidinyl}butyl)-2-methyl-1-propanesulfonamide, dihydrochloride salt] |  | duration of action compared with azelastine (human H1 receptor [4]): longer duration of action than azelastine
CCCCc1cc(OC2CCN(CCCCCNS(C)(=O)=O)CC2)c2ncccc2c1 [Example 31, N-(5-{4-[(6-Butyl-8-quinolinyl)oxy]-1-piperidinyl}pentyl)methanesulfonamide, dihydrochloride salt] | < 1 | 
CCCCc1cc(OC2CCN(CCS(=O)(=O)C(C)(C)C)CC2)c2ncccc2c1 [Example 2, 6-Butyl-8-[(1-{2-[(1,1-dimethylethyl)sulfonyl]ethyl}-4-piperidinyl)oxy]quinoline, dihydrochloride salt] | < 1 | 
